From patent US20230295197A1, “STAT5 and STAT6 Degraders and Uses Thereof” (REGENTS OF THE UNIVERSITY OF MICHICAN, priority 2022, published 2023)
Where two headings read alike, the source gives them in different places.

Molecular target: T1, STAT6 (Homo sapiens, UniProt P42226)
T1 construct: endogenous in cells; host or cells: MOLM-16, KU-812, SKNO1, MB231, L1236
T1 sequence (P42226 1-847): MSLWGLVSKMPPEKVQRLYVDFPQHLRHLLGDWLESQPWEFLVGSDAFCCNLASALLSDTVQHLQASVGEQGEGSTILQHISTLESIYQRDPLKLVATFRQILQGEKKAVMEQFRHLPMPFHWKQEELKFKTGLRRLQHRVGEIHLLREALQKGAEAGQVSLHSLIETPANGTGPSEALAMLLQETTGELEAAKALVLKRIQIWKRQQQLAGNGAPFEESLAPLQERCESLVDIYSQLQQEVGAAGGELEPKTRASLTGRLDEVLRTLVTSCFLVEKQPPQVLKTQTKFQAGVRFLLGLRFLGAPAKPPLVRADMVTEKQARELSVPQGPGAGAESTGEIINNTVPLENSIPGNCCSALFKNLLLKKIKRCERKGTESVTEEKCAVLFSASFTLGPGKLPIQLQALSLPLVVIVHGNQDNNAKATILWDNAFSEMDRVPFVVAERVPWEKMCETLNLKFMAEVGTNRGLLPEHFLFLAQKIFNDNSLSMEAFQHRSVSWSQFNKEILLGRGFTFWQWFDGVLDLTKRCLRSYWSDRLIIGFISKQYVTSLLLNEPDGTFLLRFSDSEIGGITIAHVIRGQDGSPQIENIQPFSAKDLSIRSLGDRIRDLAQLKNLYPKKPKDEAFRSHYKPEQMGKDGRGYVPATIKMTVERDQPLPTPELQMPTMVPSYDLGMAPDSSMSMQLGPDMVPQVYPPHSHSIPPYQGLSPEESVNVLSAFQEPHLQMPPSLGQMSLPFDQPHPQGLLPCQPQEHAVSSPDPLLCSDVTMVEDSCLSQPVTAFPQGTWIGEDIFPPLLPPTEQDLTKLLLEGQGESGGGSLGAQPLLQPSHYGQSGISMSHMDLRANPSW
Assay: Immunoblotting (Western blot) analysis of STAT6 degradation efficiency of degraders in treated cells
Assay type: cell-based
Summary of the method: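 About 1 million cells per point, grown in 10% FBS medium at 37 °C/5% CO2, were exposed to compound at the indicated concentrations and times, then lysed in RIPA buffer with protease and phosphatase inhibitors. Equal protein (20-40 μg) was resolved by SDS-PAGE, blotted to PVDF, and probed with anti-STAT5, anti-STAT6 and anti-GAPDH antibodies.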

[1] = L1236 cells, read-out: DC50 S6 L1236
[2] = MOLM-16 cells, class symbols, read-out: DC50 S6 MOLM-16

Structure (SMILES): Cc1ncsc1-c1ccc([C@H](C)NC(=O)[C@@H]2C[C@@H](O)CN2C(=O)[C@@H](NC(=O)CCCNC(=O)CC(=O)N2CCN(C(=O)[C@@H](NC(=O)c3cc4cc(C(F)(F)P(=O)(O)O)ccc4s3)C(C)(C)C)[C@H](C(=O)N3CCC[C@H](c4ccccc4)C3)C2)C(C)(C)C)cc1 [Compound 454, (difluoro(2-(((S)-1-((S)-4-(3-((4-(((S)-1-((2S,4R)-4-hydroxy-2-(((S)-1-(4-(4-methylthiazol-5-yl)phenyl)ethyl)carbamoyl)pyrrolidin-1-yl)-3,3-dimethyl-1-oxobutan-2-yl)amino)-4-oxobutyl)amino)-3-oxopropanoyl)-2-((R)-3-phenylpiperidine-1-carbonyl)piperazin-1-yl)-3,3-dimethyl-1-oxobutan-2-yl)carbamoyl)benzo[b]thiophen-5-yl)methyl)phosphonic acid]
- DC50 [1]: > 10 µM
- DC50 [2]: > 10 µM

Structure (SMILES): CC(C)(C)[C@H](NC(=O)c1cc2cc(C(F)(F)P(=O)(O)O)ccc2s1)C(=O)N1Cc2cc(OCC(=O)NCCCCCCCCCC#Cc3cccc4c3C(=O)N(C3CCC(=O)NC3=O)C4=O)ccc2C[C@H]1C(=O)N1CCO[C@H](c2ccccc2)C1 (stereo partly drawn) [Compound 547, ((2-(((2S)-1-((3S)-7-(2-((11-(2-(2,6-dioxopiperidin-3-yl)-1,3-dioxoisoindolin-4-yl)undec-10-yn-1-yl)amino)-2-oxoethoxy)-3-((R)-2-phenylmorpholine-4-carbonyl)-3,4-dihydroisoquinolin-2(1H)-yl)-3,3-dimethyl-1-oxobutan-2-yl)carbamoyl)benzo[b]thiophen-5-yl)difluoromethyl)phosphonic acid]
- DC50 [2]: > 10 µM

Structure (SMILES): CC(C)(C)[C@H](NC(=O)c1cc2cc(C(F)(F)P(=O)(O)O)ccc2s1)C(=O)N1C[C@@H](NC(=O)CCCCCC#Cc2cccc3c2CN(C2CCC(=O)NC2=O)C3=O)C[C@H]1C(=O)N1CCO[C@H](c2ccccc2)C1 (stereo partly drawn) [Compound 565, ((2-(((2S)-1-((2S,4S)-4-(8-(2-(2,6-dioxopiperidin-3-yl)-1-oxoisoindolin-4-yl)oct-7-ynamido)-2-((R)-2-phenylmorpholine-4-carbonyl)pyrrolidin-1-yl)-3,3-dimethyl-1-oxobutan-2-yl)carbamoyl)benzo[b]thiophen-5-yl)difluoromethyl)phosphonic acid]
- DC50 [1]: > 10 µM
- DC50 [2]: > 10 µM

Structure (SMILES): CC(C)(C)[C@H](NC(=O)c1cc2cc(C(F)(F)P(=O)(O)O)ccc2s1)C(=O)N1C[C@@H](OCC(=O)NCC#Cc2cccc3c2C(=O)N(C2CCC(=O)NC2=O)C3=O)C[C@H]1C(=O)N1CCC[C@H](c2ccccc2)C1 (stereo partly drawn) [Compound 493, ((2-(((2S)-1-((2S,4S)-4-(2-((3-(2-(2,6-dioxopiperidin-3-yl)-1,3-dioxoisoindolin-4-yl)prop-2-yn-1-yl)amino)-2-oxoethoxy)-2-((R)-3-phenylpiperidine-1-carbonyl)pyrrolidin-1-yl)-3,3-dimethyl-1-oxobutan-2-yl)carbamoyl)benzo[b]thiophen-5-yl)difluoromethyl)phosphonic acid]
- DC50 [2]: > 10 µM

Structure (SMILES): Cc1ncsc1-c1ccc([C@H](C)NC(=O)[C@@H]2C[C@@H](O)CN2C(=O)[C@@H](NC(=O)CCCCCCCCCNC(=O)CC(=O)N2CCN(C(=O)[C@@H](NC(=O)c3cc4cc(C(F)(F)P(=O)(O)O)ccc4s3)C(C)(C)C)[C@H](C(=O)N3CCO[C@H](c4ccccc4)C3)C2)C(C)(C)C)cc1 [Compound 451, (difluoro(2-(((S)-1-((S)-4-(3-((10-(((S)-1-((2S,4R)-4-hydroxy-2-(((S)-1-(4-(4-methylthiazol-5-yl)phenyl)ethyl)carbamoyl)pyrrolidin-1-yl)-3,3-dimethyl-1-oxobutan-2-yl)amino)-10-oxodecyl)amino)-3-oxopropanoyl)-2-((R)-2-phenylmorpholine-4-carbonyl)piperazin-1-yl)-3,3-dimethyl-1-oxobutan-2-yl)carbamoyl)benzo[b]thiophen-5-yl)methyl)phosphonic acid]
- DC50 [1]: > 10 µM
- DC50 [2]: > 10 µM
